Data published in PMC7125588 (Tetrahedron, 2011).

How the values were obtained:
influenza A (H1N1) = experiment: microbe, parasite or virus in culture; assay type: cell-based; conditions: H1N1, MDCK, read-out: Anti-influenza EC50 A (H1N1)
influenza A (H3N2) = experiment: microbe, parasite or virus in culture; assay type: cell-based; conditions: H3N2, MDCK, read-out: Anti-influenza EC50 A (H3N2)
influenza B virus = experiment: microbe, parasite or virus in culture; assay type: cell-based; conditions: MDCK, read-out: Anti-influenza EC50 B
influenza virus A = experiment: Anti-influenza virus A activity as summarised in the text; assay type: cell-based; conditions: conclusions
MDCK cell cultures = conditions: for Cytotoxicity MCC: dog
in vitro = conditions: dog

| Structure (SMILES) | EC50 (influenza A (H1N1)) | EC50 (influenza A (H3N2)) | EC50 (influenza B virus) | Anti-influenza virus A activity (in words) (influenza virus A) | Toxicity (in words) (MDCK cell cultures; Table 2) | Cytotoxicity MCC (MDCK cell cultures) | CC50 (in vitro) |
| --- | --- | --- | --- | --- | --- | --- | --- |
| Nc1nc(P(=O)(O)O)nc(N)c1Cl [7a, 4,6-Diamino-5-chloropyrimidin-2-ylphosphonic acid] | 50 ± 14 µM | 28 ± 10 µM | 72 ± 68 µM | middle micromolar range | no toxicity | >100 µM | > 100 µM |
| NC12CC3CC(CC(C3)C1)C2 [Amantadine] | 36.8 ± 2.6 µM | > 200 µM | > 200 µM |  |  | >100 µM | > 100 µM |
| CCOC(=O)C1=C[C@@H](OC(CC)CC)[C@H](NC(C)=O)[C@@H](N)C1 [Oseltamivir] | […] | […] | 26 ± 27.7 µM |  |  | >100 µM | > 100 µM |
| NC(=O)c1ncn([C@@H]2O[C@H](CO)[C@@H](O)[C@H]2O)n1 [Ribavirin] | 9.2 ± 0.8 µM | 8.7 ± 3.8 µM | 5.6 ± 2.8 µM |  |  | >100 µM | > 100 µM |
| CC(N)C12CC3CC(CC(C3)C1)C2 (stereo not drawn) [Rimantadine] | 13.2 ± 0.2 µM | > 500 µM | > 500 µM |  |  | >100 µM | > 100 µM |
